Results: ChEMBL document CHEMBL5346897, “smProdrugs: A repository of small molecule prodrugs” (Eur J Med Chem, 2023)
Values after ≈ are worked out from the molar mass of the structure shown.

Columns and labels:
[1] = Lipophilicity, logP of the compound; format: physicochemical; details: octanol/water
[2] = Solubility of the compound; format: physicochemical

logP [1]: 0.88
solubility [2]: 123 µg/mL (≈ 264 µM)
Structure (SMILES): CCOC(=O)OC(C)OC(=O)[C@@H]1N2C(=O)[C@@H](NC(=O)[C@H](N)c3ccccc3)[C@H]2SC1(C)C (some centres not stated) [BACAMPICILLIN]
